Results: patent publication US11407719B2, “Anti-inflammatory agents” (Resverlogix Corp., priority 2009, dated 2022)

Tests used:
hIL-6 mRNA = test: Quantification of hIL-6 mRNA; assay type: cell-based, human; parameters: key: Active: an active compound is one that causes a ≥20% inhibition in IL-6 mRNA at a concentration less than or equal to 10 μM; conditions: IL-6 mRNA by real-time PCR; differentiated U937 cells, 1 h pretreatment, lipopolysaccharide stimulation 3 h; concentration ≤10 μM
Outline: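 U937 cells, differentiated for 3 days, were pretreated with compound for 1 h and then stimulated with E. coli LPS for 3 h at 37 °C. IL-6 mRNA was quantified by one-step qRT-PCR, with Ct normalized to an internal control, and fold induction was expressed relative to control.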

VCAM-1 mRNA = test: Quantification of hVCAM mRNA; assay type: cell-based, human; parameters: key: Active: an active compound is one that causes a ≥20% inhibition in VCAM-1 mRNA at a concentration less than or equal to 10 μM; -1 mRNA at a concentration less than or equal to 10 μM; conditions: VCAM-1 mRNA by real-time PCR; HUVECs, 1 h pretreatment, tumor necrosis factor-α stimulation 24 h; concentration ≤10 μM
Outline: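 HUVECs were pretreated 1 h with compound, then stimulated with TNF-α and harvested 24 h later. Isolated mRNA went into one-step qRT-PCR. hVCAM Ct values were normalized to an internal control and expressed as fold induction relative to control.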

SMILES	Inhibition of IL-6 expression (hIL-6 mRNA)	Inhibition of VCAM-1 expression (VCAM-1 mRNA)	melting point [°C]
COCCOc1cc(OC)c2c(=O)[nH]c(-c3ccnc(C)c3)nc2c1 [5-methoxy-7-(2-methoxyethoxy)-2-(2-methylpyridin-4-yl)quinazolin-4(3H)-one]	Active	Active	260 to 262
COc1cc(OC)c2c(=O)[nH]c(-c3cc(C)c(OCCCCN4CCCC4)c(C)c3)nc2c1 [2-(3,5-Dimethyl-4-(4-(pyrrolidin-1-yl)butoxy)phenyl)-5,7-dimethoxyquinazolin-4(3H)-one]	Active	Active	180 to 181
Cc1cc(-c2nc3ccc(CCN4CCOCC4)cc3c(=O)[nH]2)cc(C)n1 [2-(2,6-Dimethylpyridin-4-yl)-6-(2-morpholinoethyl)quinazolin-4(3H)-one]	Active	Inactive	248.5 to 249.3
COc1cccc2nc(-c3cc(C)c(OCCN4CCCC4)c(C)c3)[nH]c(=O)c12 [2-(3,5-Dimethyl-4-(2-(pyrrolidin-1-yl)ethoxy)phenyl)-5-methoxyquinazolin-4(3H)-one]	Active	Active	157 to 158
COc1cc(OC)c2c(=O)[nH]c(-c3cc(C)c(CCCN4CCCC4)c(C)c3)nc2c1 [2-(3,5-Dimethyl-4-(3-(pyrrolidin-1-yl)propyl)phenyl)-5,7-dimethoxyquinazolin-4(3H)-one]	Active	Active	194 to 196
COc1cc(OCCOCc2ccccc2)cc2nc(-c3cc(C)nc(C)c3)[nH]c(=O)c12 [7-(2-(Benzyloxy)ethoxy)-2-(2,6-dimethylpyridin-4-yl)-5-methoxyquinazolin-4(3H)-one]	Active	Active	178 to 180
Cc1cc(-c2nc3ccc(CCN4CCCC4)cc3c(=O)[nH]2)cc(C)n1 [2-(2,6-Dimethylpyridin-4-yl)-6-(2-(pyrrolidin-1-yl)ethyl)quinazolin-4(3H)-one]	Active	Active	212.3 to 213.2
Cc1cc(-c2nc3cccc(Cl)c3c(=O)[nH]2)cc(C)c1OCCN1CCCC1 [5-Chloro-2-(3,5-dimethyl-4-(2-(pyrrolidin-1-yl)ethoxy)phenyl)quinazolin-4(3H)-one]	Active	Active	179 to 180
COc1cc(OC)cc(-c2nc3ccc(Nc4ccncc4)cc3c(=O)[nH]2)c1 [2-(3,5-Dimethoxyphenyl)-6-(pyridin-4-ylamino)quinazolin-4(3H)-one]	Active	Inactive	289 to 290
Cc1cc(-c2nc3cc(OCCOC(C)C)cc(OCCOC(C)C)c3c(=O)[nH]2)cc(C)n1 [2-(2,6-dimethylpyridin-4-yl)-5,7-bis(2-isopropoxyethoxy)quinazolin-4(3H)-one]	Active	Active	124 to 125
COc1cc(OC)c2c(=O)[nH]c(-c3cc(C)cc(OCCO)c3)nc2c1 [2-(3-(2-Hydroxyethoxy)-5-methylphenyl)-5,7-dimethoxyquinazolin-4(3H)-one]	Active	Active	106.9 to 109.1
COc1cc(OCCN2CCCC2)cc2nc(-c3cc(C)nc(C)c3)[nH]c(=O)c12 [2-(2,6-Dimethylpyridin-4-yl)-5-methoxy-7-(2-(pyrrolidin-1-yl)ethoxy)quinazolin-4(3H)-one]	Active	Inactive	227 to 229
COc1cc(OCCN2CCCC2)cc(-c2nc3cc(OC)cc(OC)c3c(=O)[nH]2)c1 [5,7-Dimethoxy-2-(3-methoxy-5-(2-(pyrrolidin-1-yl)ethoxy)phenyl)quinazolin-4(3H)-one]	Active	Active	159 to 160
COc1cc(OC)c2c(=O)[nH]c(-c3cc(C)c(OCCN4CCN(C)CC4)c(C)c3)nc2c1 [2-(3,5-Dimethyl-4-(2-(4-methylpiperazin-1-yl)ethoxy)phenyl)-5,7-dimethoxyquinazolin-4(3H)-one]	Active	Active	180 to 182
COCCOc1cc(OCCN2CCCC2)c2c(=O)[nH]c(-c3cc(C)nc(C)c3)nc2c1 [2-(2,6-Dimethylpyridin-4-yl)-7-(2-methoxyethoxy)-5-(2-(pyrrolidin-1-yl)ethoxy)quinazolin-4(3H)-one]	Active	Active	60.4 to 62.3
COc1cc(OC)c2c(=O)[nH]c(-c3cc(C)c(OCCn4ccnc4)c(C)c3)nc2c1 [2-(4-(2-(1H-Imidazol-1-yl)ethoxy)-3,5-dimethylphenyl)-5,7-dimethoxyquinazolin-4(3H)-one]	Active	Active	218 to 219
Cc1cc(-c2nc3cc(Cl)cc(Cl)c3c(=O)[nH]2)cc(C)c1OCCN1CCCC1 [5,7-Dichloro-2-(3,5-dimethyl-4-(2-(pyrrolidin-1-yl)ethoxy)phenyl)quinazolin-4(3H)-one]	Active	Active	209 to 210
COc1cc(OC)c2c(=O)[nH]c(-c3ccc(CN4C(=O)CNC4=O)cc3)nc2c1 [3-(4-(5,7-Dimethoxy-4-oxo-3,4-dihydroquinazolin-2-yl)benzyl)imidazolidine-2,4-dione]	Active	Active	317 to 318
COc1ccc2c(=O)[nH]c(-c3cc(C)c(OCCN4CCCC4)c(C)c3)nc2c1 [2-(3,5-Dimethyl-4-(2-(pyrrolidin-1-yl)ethoxy)phenyl)-7-methoxyquinazolin-4(3H)-one]	Active	Active	218 to 220
COc1cc(OCCOC(C)C)cc2nc(-c3cc(C)nc(C)c3)[nH]c(=O)c12 [2-(2,6-Dimethylpyridin-4-yl)-7-(2-isopropoxyethoxy)-5-methoxyquinazolin-4(3H)-one]	Active	Active	188 to 189
COc1cc(OC)c2c(=O)[nH]c(-c3cc(C)c(OCCN4C(=O)CN(C(C)C)C4=O)c(C)c3)nc2c1 [3-(2-(4-(5,7-Dimethoxy-4-oxo-3,4-dihydroquinazolin-2-yl)-2,6-dimethylphenoxy)ethyl)-1-isopropylimidazolidine-2,4-dione]	Active	Active	219 to 221
COc1cc(OCCOc2ccccc2)cc2nc(-c3cc(C)nc(C)c3)[nH]c(=O)c12 [2-(2,6-Dimethylpyridin-4-yl)-5-methoxy-7-(2-phenoxyethoxy)quinazolin-4(3H)-one]	Active	Active	223 to 224
